Consider eight molecules from article PMC3403872, “Contrasting effects of linaclotide and lubiprostone on restitution of epithelial cell barrier properties and cellular homeostasis after exposure to cell stressors” (BMC Pharmacology, 2012).

Where no end group is shown, it is not given here.

The subject of assay [1] is T84 cells.
Assay [2] deals with T84 cells. Type of assay: cell-based.
The subject of assay [3] is pig jejunum. Nature of the assay: TER of pig jejunal mucosa in Ussing chambers. The arrangement: species or system Yorkshire crossbred pigs.
Assay [4] relates to pig jejunum. Nature of the assay: mucosal-to-serosal 3H-mannitol flux in pig jejunal mucosa. The arrangement: species or system Yorkshire crossbred pigs. The following applies: n = 3.
A further assay deals with occludin. Description: Western analysis of occludin in sucrose density gradient membrane fractions. On the set-up: species or system Yorkshire crossbred pigs. The following applies: ischemic pig jejunum, n = 3 experiments.
The subject of assay [5] is pig jejunum. Nature of the assay: short-circuit current (Cl− secretion) of pig jejunal mucosa in Ussing chambers. The settings on record: 1 μM, n = 4. On the set-up: species or system Yorkshire crossbred pigs.
Assay [6] concerns T84 cells. Nature of the assay: FITC-LPS flux across T84 cells. It counts as cell-based. The following applies: IFN-γ 100 ng/ml.
Assay [7] has as its system T84 cells. It counts as cell-based. The source holds these as a separate data set.
The test system of assay [8] is T84 cells. Nature of the assay: mitochondrial membrane potential of T84 cells (JC-1). Type of assay: cell-based.
The test system of assay [9] is T84 cells. Nature of the assay: plasma membrane potential of T84 cells (DiBAC4(3)). It counts as cell-based. The following applies: different concentrations, p wrt 1 nM drug, n = 5.
For assay [10], the system named is T84 cells. Nature of the assay: 3,000 Da FITC-dextran flux across T84 cells. It counts as cell-based. The following applies: 200 nM active linaclotide, 200 nM guanylin, 100 nM lubiprostone, 3 days, then dextran 24 h, n = 3.
In assay [11] the test system is T84 cells. Nature of the assay: 70,000 Da rhodamine-dextran flux across T84 cells. It counts as cell-based. The following applies: 200 nM active linaclotide, 200 nM guanylin, 100 nM lubiprostone, 3 days, then dextran 24 h, n = 3.
The next assay deals with ClC-2 Cl- channels. On the set-up: method as in PMID 15213059, PMID 18511742. The following applies: apical membrane of epithelial cells; ref [17],[18]; cited from earlier work.
Assay [12] deals with patients with IBS-C and CIC. The settings on record: human, in vivo; cited from earlier work.
On the set-up of assay [13]: method as in PMID 16603730. The following applies: ref [19],[20]; cited from earlier work.
Another assay relates to patients with IBS-C. The settings on record: ref [21]; cited from earlier work.
Another assay has as its system porcine intestine. On the set-up: method as in PMID 17053162, PMID 18976652, PMID 18932279. The settings on record: porcine intestine models; ref [22]-[24]; cited from earlier work.
For assay [14], the system named is guanylate cyclase-C (GC-C). The following applies: cited from earlier work.
Another assay has as its system K+ channels. The settings on record: cited from earlier work.
A further assay relates to rodent animal models. The following applies: in vivo; cited from earlier work.

As to `Nc1nc2c(nc(Br)n2[C@@H]2O[C@@H]3COP(=O)(O)O[C@H]3[C@H]2O)c(=O)[nH]1` [8BrcGMP, 8-bromo cGMP], in the assay on T84 cells [1], the “effect on T84 TER, no stressor” value was “reduced T84 epithelial cell TER significantly” and the “effects against IFN-γ” value was “effects similar to active linaclotide”.
With `CCCCC[C@H](O)/C=C/[C@H]1[C@H](O)CC(=O)[C@@H]1CCCCCCC(=O)O` [PGE1, Prostaglandin E1], the “effect on [Ca2+]i” value with T84 cells [2] is given as “significantly increased”.
`CCCCC(F)(F)[C@@]1(O)CC[C@H]2[C@@H](CC(=O)[C@@H]2CCCCCCC(=O)O)O1` [lubiprostone]: the “ΔTER, control intestine” value in the assay with pig jejunum [3] (control pig jejunum, 1000 nM (1 μM), control ΔTER 2.1±1.8, n = 5, p < 0.01, mean ± S.E.) is recorded as 26.3 ± 6.2 % mean basal. Moreover, in the assay with pig jejunum [3] (ischemic pig jejunum (45 min ischemia), n = 5), the “effect on TER after ischemia” value was “large, significant increase in TER”. The “effect on 3H-mannitol flux, control intestine” value in the assay with pig jejunum [4] (control pig jejunum, 60 min flux period) is listed as “neither compound had any effect”. The “effect on 3H-mannitol flux after ischemia” value in the assay with pig jejunum [4] (ischemic pig jejunum (45 min ischemia)) is “decrease in ^3H-mannitol fluxes”. Also, the “effect on occludin after ischemia” value in the assay on occludin is “major return of occludin to detergent-insoluble fractions”. For the same molecule, in the assay on pig jejunum [5], the “effect on Isc, control intestine” value was “significant and similar increases in Isc”. The “IFN-γ-counteracting effect on FITC-LPS flux” value in the assay on T84 cells [6] (200 nM active linaclotide or 100 nM lubiprostone, 3 days, then LPS 24 h, n = 3) is reported as about 89%. Moreover, the “IFN-γ-counteracting effect on occludin/actin ratio” value in the assay on T84 cells [7] is recorded as about 43.8%. Also, the “effect on mitochondrial membrane potential, no stressor” value in the assay on T84 cells [8] (200 nM active linaclotide, 100 nM lubiprostone, 3 days) is reported as “no effect on the mitochondrial membrane potential”. Besides, the “IFN-γ-counteracting effect on mitochondrial membrane potential” value in the assay on T84 cells [8] (IFN-γ 100 ng/ml, 200 nM active linaclotide or 100 nM lubiprostone, 3 days, n = 8) is about 77.8%. For the same molecule, the “effect on plasma membrane potential” value in the assay with T84 cells [9] is “significantly hyperpolarized”. Besides, the “effect on mucosal to serosal 3,000 Da FITC-dextran flux” value in the assay on T84 cells [10] is recorded as “decreases of these fluxes”. In addition, in the assay on T84 cells [11], the “effect on mucosal to serosal 70,000 Da rhodamine-dextran flux” value is reported as “decreases of these fluxes”. Besides, the “effect on T84 TER, no stressor” value in the assay on T84 cells [1] was “slight increase in TER”. Besides, the “effect of compound alone on measured T84 parameters” value in the assay with T84 cells [1] (T84 cells, no stressor, barrier function and mitochondrial membrane potential parameters together) is “no negative effects on the measured parameters”. The “IFN-γ-counteracting effect on TER” value with T84 cells [1] (T84 cells, IFN-γ 100 ng/ml, 200 nM active linaclotide or 100 nM lubiprostone, n = 3, Δlin vs Δlubi p < 0.0005) is “ca. 27.3%”. Besides, the “effect on TNF-α-induced TER change” value in the assay with T84 cells [1] (T84 cells, TNF-α 50 ng/ml, 200 nM active linaclotide or 100 nM lubiprostone) was “partially protected/repaired barrier function”. The ClC-2 activation entry in the assay with ClC-2 Cl- channels is “activates ClC-2 Cl^- channels”. In addition, in assay [12], the “clinical effect on abdominal discomfort and pain” value was “ameliorates abdominal discomfort and pain”; the “clinical efficacy of lubiprostone (symptoms)” value is “significantly improving symptoms associated with CIC and IBS-C”. Besides, the “intestinal secretion and bowel movements” value in assay [13] is “increasing intestinal salt and water secretion, promoting bowel movements”. Besides, the “effect on visceral pain thresholds” value in the assay with patients with IBS-C was “without influencing visceral pain thresholds”. For the same molecule, the “barrier repair after ischemia” value in the assay with porcine intestine is “promotes repair of barrier properties which are disrupted by ischemia”.
Take `CCC(=O)C(CC(C)N(C)C)(c1ccccc1)c1ccccc1` (stereo not shown) [methadone]: in the assay on T84 cells [1], the “effect of methadone on linaclotide's effect on TER after TNF-α” value is given as “no effect” and the “effect of methadone on lubiprostone's protection/repair of TER after TNF-α” value is reported as “inhibited completely”.
Take “guanylin: well established GC-C activator, Sigma-Aldrich (PGTCEICAYAACTGC; ends and bridges not checked; cysteine pairing not given here; UniProt Q02747 101-115, looked up)”: the “effect on mucosal to serosal 3,000 Da FITC-dextran flux” value in the assay on T84 cells [10] is given as “increased mucosal to serosal fluxes”. In addition, the “effect on mucosal to serosal 70,000 Da rhodamine-dextran flux” value with T84 cells [11] is “increased mucosal to serosal fluxes”. In the assay with T84 cells [1], the “effect on T84 TER, no stressor” value is on record as “reduced T84 epithelial cell TER significantly” and the “effects against IFN-γ” value was “effects similar to active linaclotide”. Besides, in assay [14], the GC-C activation entry is “activates guanylate cyclase-C (GC-C) leading to increased [cGMP]i”. The “K+ channel activation” value with K+ channels was “activate K^+ channels”.
For linaclotide, the GC-C activation result in assay [14] is “activates guanylate cyclase-C (GC-C) leading to increased [cGMP]i”. For the same molecule, in the assay on rodent animal models, the “intestinal fluid secretion, transit and pain” value was “stimulated intestinal fluid secretion and transit time and reduced pain”. In addition, the “clinical efficacy of linaclotide” value in [12] is “improve bowel symptoms, transit time and abdominal discomfort or pain”.
Turning to “uroguanylin: activates guanylate cyclase-C (NDDCELCVNVACTGCL; ends and bridges not checked; cysteine pairing not given here; UniProt Q16661 97-112, looked up)”, in assay [14], the GC-C activation result is “activates guanylate cyclase-C (GC-C) leading to increased [cGMP]i”. In addition, the “K+ channel activation” value in the assay on K+ channels is on record as “activate K^+ channels”.

B1: Interferon-γ (protein, UniProt P01579 24-161, looked up)
Interferon gamma: QDPYVKEAENLKKYFNAGHSDVADNGTLFLGILKNWKEESDRKIMQSQIVSFYFKLFKNFKDDQSIQKSVETIKEDMNVKFFNSNKKKRDDFEKLTNYSVTDLNVQRKAIHELIQVMAELSPAAKTGKRKRSQMLFRG
B1: in the assay on T84 cells [6] (p < 0.0005), the “stressor effect on mucosal to serosal FITC-LPS flux” value is “increased mucosal to serosal FITC-LPS flux”. Also, in the assay on T84 cells [7] (T84 cells, IFN-γ 100 ng/ml, p < 0.0005), the “stressor effect on occludin/actin ratio” value is on record as “decreased the occludin/actin ratio”. For the same molecule, in the assay with T84 cells [8] (IFN-γ 100 ng/ml, p < 0.0005), the “stressor effect on mitochondrial membrane potential” value was “decreased the mitochondrial membrane potential”. Further, the “stressor effect on TER” value in the assay with T84 cells [1] is “significantly reduced TER”.
